According to PubChem BioAssay (NCI):
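48-hour exposure; five concentrations; linearly interpolated endpoints. TGI is the concentration that stops growth completely.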

Key:
Test in all cases: NCI tumour cell line growth inhibition, 48 h
HCC-2998 colon = test system: HCC-2998 colon
KM12 colon = test system: KM12 colon
NCI-H23 lung = test system: NCI-H23 lung
SNB-75 CNS = test system: SNB-75 CNS
786-0 renal = test system: 786-0 renal
CAKI-1 renal = test system: CAKI-1 renal
M19-MEL melanoma = test system: M19-MEL melanoma
HT29 colon = test system: HT29 colon
SF-268 CNS = test system: SF-268 CNS
BT-549 breast = test system: BT-549 breast
HS 578T breast = test system: HS 578T breast
MDA-MB-231 breast = test system: MDA-MB-231 breast

| SMILES | TGI (HCC-2998 colon) [µM] | TGI (KM12 colon) [µM] | TGI (NCI-H23 lung) [µM] | TGI (SNB-75 CNS) [µM] | TGI (786-0 renal) [µM] | TGI (CAKI-1 renal) [µM] | TGI (M19-MEL melanoma) [µM] | TGI (HT29 colon) [µM] | TGI (SF-268 CNS) [µM] | TGI (BT-549 breast) [µM] | TGI (HS 578T breast) [µM] | TGI (MDA-MB-231 breast) [µM] |
| --- | --- | --- | --- | --- | --- | --- | --- | --- | --- | --- | --- | --- |
| CCc1cccc(C(C)C)c1NC(=O)C(=O)C(C(=O)C(=O)OC)c1nc2ccccc2[nH]c1=O (stereo not given) | > 100 | > 100 | > 100 | > 100 | > 100 | > 100 | > 100 | > 100 | > 100 |  |  |  |
| Cc1ccc(NC(=O)CC(=O)n2nc(-c3ccccc3)c(N=Nc3ccc(Cl)cc3)c2-c2ccccc2)cc1 | > 100 | > 100 | > 100 | 70.9 | 45.2 | > 100 | 60.4 | 40.4 | > 100 |  |  |  |
| CC12O[C@H](c3ccccc3)[C@H](c3ccccc3)N1C(=O)C1(C(=O)OCc3ccccc3)CC12 (stereo not given in full) | > 100 | > 100 |  | > 100 | > 100 | > 100 | > 100 | > 100 | > 100 |  |  |  |
| CN(C)C(=O)CC(C(=O)O)c1c[nH]c2ccccc12 (stereo not given) | > 100 | > 100 | > 100 | > 100 | > 100 | > 100 | > 100 | > 100 |  |  |  |  |
| N#C/C(=C/c1cccnc1)C(=O)c1ccccc1 | > 100 | > 100 | > 100 | > 100 | > 100 | > 100 | > 100 | > 100 | > 100 |  |  |  |
| C[n+]1c2ccccc2c(CNC(CCC(N)=O)C(=O)O)c2ccccc21 (stereo not given) | 11.2 | 9 | 13.1 | 12.5 | 3.22 | 7.53 | 7.91 | 7.01 | 6.71 | 10.1 | 21.8 |  |
| NC(=O)N/N=C(\Cc1nc2ccc(C(=O)c3ccccc3)cc2[nH]c1=O)C(=O)Nc1ccc(Br)cc1 | > 100 | > 100 | > 100 | > 100 | > 100 | > 100 | > 100 | > 100 | > 100 |  |  |  |
| Cc1cc(N(CCC#N)CCC#N)ccc1/C=C(\NC(=O)/C=C/c1ccccc1)NC(=O)Nc1ccc(Cl)cc1 | > 100 | > 100 | > 100 |  | > 100 | > 100 | > 100 | > 100 | > 100 |  |  |  |
| O=C(CSc1nnc(Cc2ccccc2)o1)Nc1ccc(Cl)cc1 | > 100 | > 100 | > 100 | > 100 | > 100 | > 100 | > 100 | > 100 |  |  |  |  |
| CCOC(OCC)C(CC)[Se]c1ccccc1[N+](=O)[O-] (stereo not given) | 14.3 | 71.4 | > 42.7 | > 100 | > 46.7 | 88.8 | > 100 | 7.31 | 63.9 |  | > 100 | > 100 |
| Cc1cc(Cc2cc(C)c(NC(=O)C(=O)C3C(=O)NC(=S)NC3=O)c(C(C)C)c2)cc(C(C)C)c1NC(=O)C(=O)C1C(=O)NC(=S)NC1=O | > 100 | > 100 | > 100 | > 100 | > 100 | > 100 | > 100 | > 100 | > 100 |  |  |  |
| CN1N=C2c3ccccc3CC[C@H]2C1c1ccccc1 (stereo not given in full) | > 100 | > 100 | > 100 |  | > 100 |  | 66.1 | > 100 | > 100 |  |  |  |
| CCSc1nc2sc(C)c(C)c2c(=O)n1-c1ccc(C(=O)O)cc1 | > 100 | > 100 | > 100 | 70 | > 100 | > 100 | > 100 | > 100 | > 100 |  |  |  |
| CC(C)(C)NC(NC(C)(C)C)=C(C(Cl)=C(Cl)Cl)[N+](=O)[O-] | > 100 | > 100 | > 100 | > 100 | > 100 | > 100 |  | > 100 | > 100 | > 100 | > 100 | > 100 |
| N#Cc1c(=O)c2cc([N+](=O)[O-])ccc2n2c1[nH]c1ccccc12 | > 100 | > 57.2 | > 38.4 | > 100 | > 100 | > 92 |  | > 87.9 | > 100 | > 69.5 | > 74.9 | > 57.4 |
| CCC(=O)OCc1ccc2oc(=O)c(C(=O)Oc3cncc(Cl)c3)cc2c1 | > 100 | > 100 | > 100 | > 100 | > 100 | > 100 |  | > 100 | > 100 | > 100 | > 100 | > 100 |
| O=c1ccc2ccccc2o1 | > 100 | > 100 | > 100 | > 100 | > 100 |  | > 100 | > 100 | > 100 |  |  |  |
| COC(=O)C(NC(=O)CNC(=O)CSc1nnc(COc2ccc(Cl)cc2)n1-c1ccccc1)C(C)C (stereo not given) | 34 | 35.4 | 42.8 | 37.5 | 32.5 | 28.2 |  | 35.3 | 42.7 | 34 | 62.9 | 36.5 |
| C=C1C(=O)OC2/C=C(\C)C(O)CC(O)C(C)(O)CC(OC(=O)/C(C)=C/C)C12 (stereo not given) | > 100 | > 75.8 | > 100 | > 94.2 | > 100 | > 100 |  | > 100 | > 100 | 83.9 | > 100 | > 100 |
| Oc1[nH]c2ccccc2c1N=NC1=NCCCCN1 | > 100 | > 100 | > 100 | > 100 | > 100 | > 100 |  | > 100 | > 100 | > 100 | > 100 | > 100 |
| CCOC(=O)CCC(NC(=O)c1ccc(CNc2nc3cc(N)cc(N)c3nc2-c2ccccc2)cc1)C(=O)OCC (stereo not given) | > 100 | > 100 | > 100 | > 100 | > 100 | > 100 |  | > 100 | > 100 | > 100 | > 100 | > 68.1 |
